From ChEMBL document CHEMBL3797068, “eCF309: a potent, selective and cell-permeable mTOR inhibitor” (Medchemcomm, 2016)
Calls of active or inactive are those of the source. The rule behind the calls is not given here.

Experiments:
MCF7 [1] = assay: Cytotoxicity against human MCF7 cells after 5 days by Presto blue reagent-based fluorescence analysis; format: functional, cell-based; details: for EC50: MCF7, 120 h
[2] = target: Tyrosine-protein kinase Blk (Homo sapiens, UniProt P51451); assay: Inhibition of human BLK using (poly [Glu, Tyr] 4:1) as substrate assessed as incorporation of 33P in substrate by [gamma33P] ATP-based kinase assay
Tyrosine-protein kinase Blk, sequence (P51451 whole entry): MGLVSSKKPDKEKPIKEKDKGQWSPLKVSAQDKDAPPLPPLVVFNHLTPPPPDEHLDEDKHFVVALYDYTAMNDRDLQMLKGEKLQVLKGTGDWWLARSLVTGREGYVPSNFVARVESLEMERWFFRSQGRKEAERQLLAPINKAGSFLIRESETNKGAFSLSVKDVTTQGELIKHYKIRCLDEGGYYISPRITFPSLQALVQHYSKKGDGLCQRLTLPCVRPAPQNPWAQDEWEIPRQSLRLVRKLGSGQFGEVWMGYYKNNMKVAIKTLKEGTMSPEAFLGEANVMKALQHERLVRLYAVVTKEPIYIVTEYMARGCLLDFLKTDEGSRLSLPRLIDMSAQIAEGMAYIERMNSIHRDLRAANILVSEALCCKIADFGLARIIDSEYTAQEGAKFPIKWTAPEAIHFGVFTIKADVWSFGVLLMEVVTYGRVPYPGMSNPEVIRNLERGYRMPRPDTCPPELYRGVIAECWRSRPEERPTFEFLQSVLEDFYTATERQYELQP

[3] = target: Tyrosine-protein kinase ABL1 (Homo sapiens, UniProt P00519); assay: Inhibition of human ABL using (poly [Glu, Tyr] 4:1) as substrate assessed as incorporation of 33P in substrate by [gamma33P] ATP-based kinase assay
[4] = target: Platelet-derived growth factor receptor alpha (Homo sapiens, UniProt P16234); assay: Inhibition of human PDGFRalpha using (poly [Glu, Tyr] 4:1) as substrate assessed as incorporation of 33P in substrate by [gamma33P] ATP-based kinase assay
Platelet-derived growth factor receptor alpha, sequence (P16234 whole entry): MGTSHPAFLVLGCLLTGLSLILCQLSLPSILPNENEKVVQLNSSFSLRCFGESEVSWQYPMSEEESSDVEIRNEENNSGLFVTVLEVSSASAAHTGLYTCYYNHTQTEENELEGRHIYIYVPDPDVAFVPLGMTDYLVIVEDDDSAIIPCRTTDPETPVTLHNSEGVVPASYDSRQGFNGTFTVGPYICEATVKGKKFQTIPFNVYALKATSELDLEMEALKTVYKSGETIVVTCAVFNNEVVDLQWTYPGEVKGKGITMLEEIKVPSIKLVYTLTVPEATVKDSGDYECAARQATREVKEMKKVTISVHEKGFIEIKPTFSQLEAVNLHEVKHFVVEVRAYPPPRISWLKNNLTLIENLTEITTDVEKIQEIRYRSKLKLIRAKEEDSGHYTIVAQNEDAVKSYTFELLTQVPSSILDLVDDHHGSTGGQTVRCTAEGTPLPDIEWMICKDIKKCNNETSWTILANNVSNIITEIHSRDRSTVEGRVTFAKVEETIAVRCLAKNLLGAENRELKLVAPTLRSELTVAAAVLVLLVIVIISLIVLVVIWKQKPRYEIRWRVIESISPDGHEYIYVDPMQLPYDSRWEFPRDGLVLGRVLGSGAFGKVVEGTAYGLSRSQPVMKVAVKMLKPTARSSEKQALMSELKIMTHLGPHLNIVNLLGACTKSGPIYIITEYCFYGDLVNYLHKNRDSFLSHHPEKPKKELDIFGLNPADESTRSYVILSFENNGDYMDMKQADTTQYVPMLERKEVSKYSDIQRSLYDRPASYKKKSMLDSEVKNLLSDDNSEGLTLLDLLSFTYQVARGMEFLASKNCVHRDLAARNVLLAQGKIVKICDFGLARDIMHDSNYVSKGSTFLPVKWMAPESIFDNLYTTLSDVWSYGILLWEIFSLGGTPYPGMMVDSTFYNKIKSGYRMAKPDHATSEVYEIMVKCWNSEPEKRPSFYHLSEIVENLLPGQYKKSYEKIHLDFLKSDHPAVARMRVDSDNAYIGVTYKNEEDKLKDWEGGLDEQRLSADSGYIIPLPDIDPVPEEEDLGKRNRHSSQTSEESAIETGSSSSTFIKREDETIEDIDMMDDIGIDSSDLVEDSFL

[5] = target: Tyrosine-protein kinase Fyn (Homo sapiens, UniProt P06241); assay: Inhibition of human FYN using (poly [Glu, Tyr] 4:1) as substrate assessed as incorporation of 33P in substrate by [gamma33P] ATP-based kinase assay
[6] = target: Mast/stem cell growth factor receptor Kit (Homo sapiens, UniProt P10721); assay: Inhibition of human KIT using (poly [Glu, Tyr] 4:1) as substrate assessed as incorporation of 33P in substrate by [gamma33P] ATP-based kinase assay
Mast/stem cell growth factor receptor Kit, sequence (P10721 whole entry): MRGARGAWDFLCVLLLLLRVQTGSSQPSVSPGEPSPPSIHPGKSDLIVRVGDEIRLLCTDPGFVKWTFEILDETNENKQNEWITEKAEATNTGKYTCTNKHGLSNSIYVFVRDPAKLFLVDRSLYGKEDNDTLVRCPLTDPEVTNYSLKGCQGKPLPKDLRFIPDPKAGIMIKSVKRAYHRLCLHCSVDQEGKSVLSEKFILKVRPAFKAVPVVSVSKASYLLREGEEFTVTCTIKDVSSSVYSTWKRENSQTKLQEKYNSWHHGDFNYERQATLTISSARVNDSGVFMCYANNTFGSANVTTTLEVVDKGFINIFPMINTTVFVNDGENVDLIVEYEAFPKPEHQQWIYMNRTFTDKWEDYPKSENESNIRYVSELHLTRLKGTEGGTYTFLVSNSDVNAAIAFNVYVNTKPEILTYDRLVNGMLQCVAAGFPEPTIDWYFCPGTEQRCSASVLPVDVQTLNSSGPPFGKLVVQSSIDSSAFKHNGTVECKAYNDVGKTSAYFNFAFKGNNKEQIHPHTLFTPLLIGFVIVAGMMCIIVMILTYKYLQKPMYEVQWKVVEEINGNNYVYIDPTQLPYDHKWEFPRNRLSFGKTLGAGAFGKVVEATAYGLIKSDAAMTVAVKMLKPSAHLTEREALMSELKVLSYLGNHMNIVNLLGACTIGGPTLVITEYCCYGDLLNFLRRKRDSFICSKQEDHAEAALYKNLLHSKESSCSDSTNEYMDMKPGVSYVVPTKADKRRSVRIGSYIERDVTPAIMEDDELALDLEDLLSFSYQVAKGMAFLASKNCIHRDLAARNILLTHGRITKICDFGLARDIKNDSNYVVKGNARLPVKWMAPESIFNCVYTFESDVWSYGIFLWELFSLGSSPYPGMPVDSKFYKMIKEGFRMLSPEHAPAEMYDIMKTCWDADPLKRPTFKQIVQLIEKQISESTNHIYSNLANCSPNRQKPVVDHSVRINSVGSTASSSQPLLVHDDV

[7] = target: Serine/threonine-protein kinase mTOR (Homo sapiens, UniProt P42345); assay: Inhibition of human mTOR using (poly [Glu, Tyr] 4:1) as substrate assessed as incorporation of 33P in substrate by [gamma33P] ATP-based kinase assay
[8] = target: Proto-oncogene tyrosine-protein kinase receptor Ret (Homo sapiens, UniProt P07949); assay: Inhibition of human RET using (poly [Glu, Tyr] 4:1) as substrate assessed as incorporation of 33P in substrate by [gamma33P] ATP-based kinase assay
[9] = target: Proto-oncogene tyrosine-protein kinase Src (Homo sapiens, UniProt P12931); assay: Inhibition of human SRC using (poly [Glu, Tyr] 4:1) as substrate assessed as incorporation of 33P in substrate by [gamma33P] ATP-based kinase assay
[10] = target: Tyrosine-protein kinase Yes (Homo sapiens, UniProt P07947); assay: Inhibition of human YES using (poly [Glu, Tyr] 4:1) as substrate assessed as incorporation of 33P in substrate by [gamma33P] ATP-based kinase assay
[11] = target: Phosphatidylinositol 4,5-bisphosphate 3-kinase catalytic subunit alpha isoform (Homo sapiens, UniProt P42336); assay: Inhibition of PI3Kalpha (unknown origin) using (poly [Glu, Tyr] 4:1) as substrate assessed as incorporation of 33P in substrate by [gamma33P] ATP-based kinase assay
[12] = target: Phosphatidylinositol 4,5-bisphosphate 3-kinase catalytic subunit beta isoform (Homo sapiens, UniProt P42338); assay: Inhibition of PI3Kbeta (unknown origin) using (poly [Glu, Tyr] 4:1) as substrate assessed as incorporation of 33P in substrate by [gamma33P] ATP-based kinase assay
Phosphatidylinositol 4,5-bisphosphate 3-kinase catalytic subunit beta isoform, sequence (P42338 whole entry, canonical isoform): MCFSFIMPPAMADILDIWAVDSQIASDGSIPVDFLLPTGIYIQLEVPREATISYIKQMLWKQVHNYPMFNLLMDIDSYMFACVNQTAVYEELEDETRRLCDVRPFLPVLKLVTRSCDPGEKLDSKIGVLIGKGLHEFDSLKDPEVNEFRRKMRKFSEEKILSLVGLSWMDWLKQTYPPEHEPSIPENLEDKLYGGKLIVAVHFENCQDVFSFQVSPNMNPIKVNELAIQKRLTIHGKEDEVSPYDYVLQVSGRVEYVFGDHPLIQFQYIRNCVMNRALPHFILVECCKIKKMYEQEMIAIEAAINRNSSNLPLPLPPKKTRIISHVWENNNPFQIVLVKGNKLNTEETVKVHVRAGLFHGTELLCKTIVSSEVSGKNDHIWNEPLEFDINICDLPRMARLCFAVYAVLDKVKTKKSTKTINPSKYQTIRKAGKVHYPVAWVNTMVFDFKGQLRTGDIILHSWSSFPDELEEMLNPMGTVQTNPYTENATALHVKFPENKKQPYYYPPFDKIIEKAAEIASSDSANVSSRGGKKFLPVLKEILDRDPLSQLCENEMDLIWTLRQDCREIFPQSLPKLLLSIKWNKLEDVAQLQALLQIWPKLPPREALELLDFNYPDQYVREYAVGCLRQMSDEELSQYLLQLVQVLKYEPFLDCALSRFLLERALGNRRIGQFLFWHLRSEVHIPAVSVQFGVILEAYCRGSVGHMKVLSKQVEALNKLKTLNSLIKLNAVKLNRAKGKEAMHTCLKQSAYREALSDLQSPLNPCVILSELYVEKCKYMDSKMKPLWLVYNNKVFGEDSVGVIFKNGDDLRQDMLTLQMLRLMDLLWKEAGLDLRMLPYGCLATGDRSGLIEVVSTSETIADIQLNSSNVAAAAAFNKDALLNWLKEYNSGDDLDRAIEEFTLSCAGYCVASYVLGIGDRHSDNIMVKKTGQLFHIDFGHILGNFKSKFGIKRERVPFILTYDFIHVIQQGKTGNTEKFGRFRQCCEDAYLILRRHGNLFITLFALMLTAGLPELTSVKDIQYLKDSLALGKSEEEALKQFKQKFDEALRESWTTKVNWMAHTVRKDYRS

[13] = target: Phosphatidylinositol 4,5-bisphosphate 3-kinase catalytic subunit gamma isoform (Homo sapiens, UniProt P48736); assay: Inhibition of PI3Kgamma (unknown origin) using (poly [Glu, Tyr] 4:1) as substrate assessed as incorporation of 33P in substrate by [gamma33P] ATP-based kinase assay
Phosphatidylinositol 4,5-bisphosphate 3-kinase catalytic subunit gamma isoform, sequence (P48736 whole entry, canonical isoform): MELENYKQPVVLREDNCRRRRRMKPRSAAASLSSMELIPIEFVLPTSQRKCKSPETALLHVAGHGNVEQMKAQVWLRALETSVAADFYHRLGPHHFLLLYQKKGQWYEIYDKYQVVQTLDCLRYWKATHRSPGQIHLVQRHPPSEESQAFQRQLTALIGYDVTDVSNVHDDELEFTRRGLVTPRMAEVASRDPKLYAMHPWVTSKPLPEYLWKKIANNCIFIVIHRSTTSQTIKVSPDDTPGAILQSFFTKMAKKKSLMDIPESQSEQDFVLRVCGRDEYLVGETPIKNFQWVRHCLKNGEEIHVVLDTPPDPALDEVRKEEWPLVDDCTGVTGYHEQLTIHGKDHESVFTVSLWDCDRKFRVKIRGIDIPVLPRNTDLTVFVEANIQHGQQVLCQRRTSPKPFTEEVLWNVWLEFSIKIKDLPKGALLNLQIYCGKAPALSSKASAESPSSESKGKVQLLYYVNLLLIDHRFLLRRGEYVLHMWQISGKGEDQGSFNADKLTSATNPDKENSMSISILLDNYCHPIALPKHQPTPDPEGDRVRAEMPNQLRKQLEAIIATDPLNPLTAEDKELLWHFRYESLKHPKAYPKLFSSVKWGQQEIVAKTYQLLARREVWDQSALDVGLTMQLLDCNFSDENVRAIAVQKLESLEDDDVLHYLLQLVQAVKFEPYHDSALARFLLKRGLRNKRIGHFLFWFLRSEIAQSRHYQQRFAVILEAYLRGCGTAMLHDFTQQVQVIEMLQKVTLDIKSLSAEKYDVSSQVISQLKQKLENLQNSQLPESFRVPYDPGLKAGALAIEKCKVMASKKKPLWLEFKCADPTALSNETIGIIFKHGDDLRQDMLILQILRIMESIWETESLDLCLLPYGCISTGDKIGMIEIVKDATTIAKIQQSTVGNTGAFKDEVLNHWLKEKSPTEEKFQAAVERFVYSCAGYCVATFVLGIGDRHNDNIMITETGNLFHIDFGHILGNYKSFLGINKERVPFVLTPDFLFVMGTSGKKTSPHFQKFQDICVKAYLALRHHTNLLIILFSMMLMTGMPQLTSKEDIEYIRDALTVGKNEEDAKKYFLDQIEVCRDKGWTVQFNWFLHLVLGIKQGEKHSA

[14] = target: T1, Phosphatidylinositol 4,5-bisphosphate 3-kinase catalytic subunit delta isoform (Homo sapiens, UniProt O00329); assay: Inhibition of PI3Kdelta (unknown origin) using (poly [Glu, Tyr] 4:1) as substrate assessed as incorporation of 33P in substrate by [gamma33P] ATP-based kinase assay
T1 sequence (O00329 whole entry): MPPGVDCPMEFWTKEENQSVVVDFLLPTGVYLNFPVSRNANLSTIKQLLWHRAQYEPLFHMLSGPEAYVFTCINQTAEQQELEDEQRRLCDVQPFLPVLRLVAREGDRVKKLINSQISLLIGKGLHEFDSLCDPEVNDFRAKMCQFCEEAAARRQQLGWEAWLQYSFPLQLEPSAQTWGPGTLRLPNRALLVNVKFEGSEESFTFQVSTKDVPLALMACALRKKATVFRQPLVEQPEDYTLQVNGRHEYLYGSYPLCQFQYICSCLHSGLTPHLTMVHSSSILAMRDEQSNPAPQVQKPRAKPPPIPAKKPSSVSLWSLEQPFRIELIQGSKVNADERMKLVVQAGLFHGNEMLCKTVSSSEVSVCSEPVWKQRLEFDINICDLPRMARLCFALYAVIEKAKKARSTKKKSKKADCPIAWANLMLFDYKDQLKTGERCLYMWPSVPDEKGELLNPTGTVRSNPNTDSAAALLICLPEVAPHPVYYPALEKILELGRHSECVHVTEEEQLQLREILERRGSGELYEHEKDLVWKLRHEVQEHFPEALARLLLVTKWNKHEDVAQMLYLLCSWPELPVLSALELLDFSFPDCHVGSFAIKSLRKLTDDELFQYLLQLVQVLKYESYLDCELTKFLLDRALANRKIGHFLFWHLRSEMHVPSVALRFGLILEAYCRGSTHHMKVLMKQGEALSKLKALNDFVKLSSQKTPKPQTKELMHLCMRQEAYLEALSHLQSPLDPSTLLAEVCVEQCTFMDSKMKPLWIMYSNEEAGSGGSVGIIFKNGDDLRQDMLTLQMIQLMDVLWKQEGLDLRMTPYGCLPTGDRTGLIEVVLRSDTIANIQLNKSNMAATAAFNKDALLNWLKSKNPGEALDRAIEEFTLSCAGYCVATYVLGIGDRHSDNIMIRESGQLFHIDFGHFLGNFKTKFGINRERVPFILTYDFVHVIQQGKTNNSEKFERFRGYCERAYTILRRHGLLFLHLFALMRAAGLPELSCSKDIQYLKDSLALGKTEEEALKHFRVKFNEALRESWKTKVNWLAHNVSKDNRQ

MCF7 [15] = assay: Cytotoxicity against human MCF7 cells at 0.3 to 1000 nM after 5 days by Presto blue reagent-based spectrofluorometric analysis; format: functional, cell-based
MCF7 [16] = assay: Cytotoxicity against human MCF7 cells assessed as cell viability at 1000 nM after 5 days by Presto blue reagent-based spectrofluorometric analysis; format: functional; details: MCF7, 120 h, read-out: Activity

| Structure (SMILES) | Activity (MCF7 [1]) | IC50 [2] | IC50 [3] | IC50 [4] | IC50 [5] | IC50 [6] | IC50 [7] | IC50 [8] | IC50 [9] | IC50 [10] | IC50 [11] | IC50 [12] | IC50 [13] | IC50 [14] | EC50 (MCF7 [1]) | Activity (MCF7 [15]) | viability at 1 µM (MCF7 [16]) |
| --- | --- | --- | --- | --- | --- | --- | --- | --- | --- | --- | --- | --- | --- | --- | --- | --- | --- |
| COC(Cn1nc(-c2cnc3[nH]ccc3c2)c2c(N)ncnc21)OC | Active |  |  |  |  |  |  |  |  |  |  |  |  |  |  |  |  |
| COC(Cn1nc(-c2ccc3oc(N)nc3c2)c2c(N)ncnc21)OC |  | > 100 µM | 9.92 µM | > 100 µM | > 100 µM | > 100 µM | 0.025 µM | > 100 µM | > 100 µM | > 100 µM | 0.3 µM | 5.6 µM | 0.099 µM | 0.505 µM | 0.0067 µM |  |  |
| Nc1nc2cc(-c3nn(CC=O)c4ncnc(N)c34)ccc2o1 |  |  |  |  |  |  |  |  |  |  |  |  |  |  |  | inactive |  |
| Nc1nc2cc(-c3nn(CC4OCCO4)c4ncnc(N)c34)ccc2o1 |  | > 100 µM | 8.63 µM | > 100 µM | > 100 µM | > 100 µM | 0.059 µM | > 100 µM | > 100 µM | > 100 µM | 0.115 µM | 3.85 µM | 0.302 µM | 0.271 µM | 0.0076 µM |  |  |
| CCOC(Cn1nc(-c2cnc3[nH]ccc3c2)c2c(N)ncnc21)OCC | Active | > 100 µM |  | > 100 µM |  | > 100 µM |  |  |  |  |  |  |  |  |  |  |  |
| CO[C@H]1C[C@@H]2CC[C@@H](C)[C@@](O)(O2)C(=O)C(=O)N2CCCC[C@H]2C(=O)O[C@H]([C@H](C)C[C@@H]2CC[C@@H](OCCO)[C@H](OC)C2)CC(=O)[C@H](C)/C=C(\C)[C@@H](O)[C@@H](OC)C(=O)[C@H](C)C[C@H](C)/C=C/C=C/C=C/1C [EVEROLIMUS] |  |  |  |  |  |  |  |  |  |  |  |  |  |  | < 0.001 µM |  | 30% |
